# Results taken from ChEMBL document CHEMBL5303766, “Data for DCP probe FHT-2344” (2022).
# Legend:
# [1] = biological target: Membrane-associated tyrosine- and threonine-specific cdc2-inhibitory kinase (Homo sapiens) (UniProt Q99640); test: PKMYT1 SGC Tm panel (DSF); conditions: Compound concentration 10.0 uM
# [2] = biological target: T1, Peripheral plasma membrane protein CASK (Homo sapiens) (UniProt O14936); test: CASK SGC Tm panel (DSF); conditions: for ΔTm: Compound concentration 10.0 uM
# T1 sequence (whole entry): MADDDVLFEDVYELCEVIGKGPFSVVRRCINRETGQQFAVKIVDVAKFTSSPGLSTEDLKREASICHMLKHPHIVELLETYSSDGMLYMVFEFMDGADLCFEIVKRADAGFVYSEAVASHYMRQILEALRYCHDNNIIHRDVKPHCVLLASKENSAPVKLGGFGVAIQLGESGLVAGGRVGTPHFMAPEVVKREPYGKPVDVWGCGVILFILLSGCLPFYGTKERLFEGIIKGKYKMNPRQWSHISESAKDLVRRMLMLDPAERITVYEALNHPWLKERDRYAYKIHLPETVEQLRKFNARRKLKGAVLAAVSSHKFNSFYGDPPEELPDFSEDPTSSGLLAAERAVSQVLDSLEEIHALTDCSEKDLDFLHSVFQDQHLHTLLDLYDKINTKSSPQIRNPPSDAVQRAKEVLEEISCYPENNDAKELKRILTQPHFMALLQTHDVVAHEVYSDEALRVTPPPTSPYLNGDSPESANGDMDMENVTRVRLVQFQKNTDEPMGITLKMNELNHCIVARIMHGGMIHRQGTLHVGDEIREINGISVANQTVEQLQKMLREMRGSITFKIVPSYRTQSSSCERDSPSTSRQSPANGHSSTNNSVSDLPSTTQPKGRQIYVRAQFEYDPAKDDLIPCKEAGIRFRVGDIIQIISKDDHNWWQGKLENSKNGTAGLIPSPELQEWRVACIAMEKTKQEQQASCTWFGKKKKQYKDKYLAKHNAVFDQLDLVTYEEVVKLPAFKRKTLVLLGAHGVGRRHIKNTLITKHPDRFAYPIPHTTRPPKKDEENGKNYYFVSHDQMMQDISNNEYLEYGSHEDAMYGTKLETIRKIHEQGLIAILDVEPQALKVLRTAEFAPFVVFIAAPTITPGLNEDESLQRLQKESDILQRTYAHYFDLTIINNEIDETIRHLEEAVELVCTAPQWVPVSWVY
# [3] = biological target: Calcium/calmodulin-dependent protein kinase type II subunit delta (Homo sapiens) (UniProt Q13557); test: CAMK2D SGC Tm panel (DSF); conditions: for ΔTm: Compound concentration 10.0 uM
# Chain of Calcium/calmodulin-dependent protein kinase type II subunit delta (Homo sapiens) (Q13557 whole entry): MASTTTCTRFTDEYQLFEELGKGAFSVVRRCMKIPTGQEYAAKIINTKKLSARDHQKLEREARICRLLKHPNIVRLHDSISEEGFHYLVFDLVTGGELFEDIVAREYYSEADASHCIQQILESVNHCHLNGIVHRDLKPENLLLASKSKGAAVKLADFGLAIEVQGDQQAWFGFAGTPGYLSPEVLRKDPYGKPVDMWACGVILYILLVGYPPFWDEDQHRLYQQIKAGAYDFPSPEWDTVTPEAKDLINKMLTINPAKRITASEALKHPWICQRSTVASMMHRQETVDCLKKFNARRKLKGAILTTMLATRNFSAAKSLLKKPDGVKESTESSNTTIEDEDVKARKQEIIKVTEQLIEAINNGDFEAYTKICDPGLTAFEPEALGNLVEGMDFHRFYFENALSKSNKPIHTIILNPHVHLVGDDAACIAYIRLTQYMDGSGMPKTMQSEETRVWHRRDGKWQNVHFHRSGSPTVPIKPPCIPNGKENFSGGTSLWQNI
# [4] = biological target: T2, Serine/threonine-protein kinase VRK1 (Homo sapiens) (UniProt Q99986); test: VRK1 SGC Tm panel (DSF); conditions: for ΔTm: Compound concentration 10.0 uM
# T2 sequence (whole entry): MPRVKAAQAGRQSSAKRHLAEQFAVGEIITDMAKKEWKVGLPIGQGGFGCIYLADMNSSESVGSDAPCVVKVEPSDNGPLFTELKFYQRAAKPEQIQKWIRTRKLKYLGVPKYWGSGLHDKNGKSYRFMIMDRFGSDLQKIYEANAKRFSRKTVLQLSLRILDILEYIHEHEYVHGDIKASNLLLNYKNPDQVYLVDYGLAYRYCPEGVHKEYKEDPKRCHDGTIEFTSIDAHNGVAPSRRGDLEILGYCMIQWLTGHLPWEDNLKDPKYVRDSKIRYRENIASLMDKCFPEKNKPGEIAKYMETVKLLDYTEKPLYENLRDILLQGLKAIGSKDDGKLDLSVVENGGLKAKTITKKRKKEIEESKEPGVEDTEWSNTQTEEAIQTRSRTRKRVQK
# [5] = biological target: Delta-type opioid receptor (Homo sapiens) (UniProt P41143); conditions: Compound concentration 10.0 uM
# [6] = biological target: Ephrin type-A receptor 7 (Homo sapiens) (UniProt Q15375); test: EPHA7 SGC Tm panel (DSF); conditions: for ΔTm: Compound concentration 10.0 uM
# Chain of Ephrin type-A receptor 7 (Homo sapiens) (Q15375 28-998 limits assumed): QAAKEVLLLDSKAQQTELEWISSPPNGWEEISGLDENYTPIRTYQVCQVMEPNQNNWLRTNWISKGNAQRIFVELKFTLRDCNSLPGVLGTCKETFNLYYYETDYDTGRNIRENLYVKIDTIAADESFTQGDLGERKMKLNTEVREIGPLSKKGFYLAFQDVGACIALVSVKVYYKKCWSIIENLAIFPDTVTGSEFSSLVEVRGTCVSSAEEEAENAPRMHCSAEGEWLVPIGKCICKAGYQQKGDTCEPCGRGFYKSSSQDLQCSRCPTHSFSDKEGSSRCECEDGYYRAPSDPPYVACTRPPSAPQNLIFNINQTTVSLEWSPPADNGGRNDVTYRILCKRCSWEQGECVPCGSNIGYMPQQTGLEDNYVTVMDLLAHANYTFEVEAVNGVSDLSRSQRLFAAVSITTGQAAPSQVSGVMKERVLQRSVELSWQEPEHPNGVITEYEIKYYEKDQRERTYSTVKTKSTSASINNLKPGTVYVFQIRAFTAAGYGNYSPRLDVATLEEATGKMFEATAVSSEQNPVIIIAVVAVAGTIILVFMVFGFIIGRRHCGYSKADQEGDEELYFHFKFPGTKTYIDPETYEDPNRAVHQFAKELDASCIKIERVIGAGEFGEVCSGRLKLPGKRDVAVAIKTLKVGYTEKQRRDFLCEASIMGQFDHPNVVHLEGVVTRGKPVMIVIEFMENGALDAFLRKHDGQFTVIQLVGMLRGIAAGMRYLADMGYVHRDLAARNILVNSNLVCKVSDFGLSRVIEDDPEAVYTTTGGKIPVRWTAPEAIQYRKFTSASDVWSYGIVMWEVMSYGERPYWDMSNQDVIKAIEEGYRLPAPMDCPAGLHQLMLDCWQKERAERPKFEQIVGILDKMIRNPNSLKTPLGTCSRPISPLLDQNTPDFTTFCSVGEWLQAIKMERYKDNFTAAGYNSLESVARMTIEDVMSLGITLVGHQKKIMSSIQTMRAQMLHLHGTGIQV
# [7] = biological target: Ribosomal protein S6 kinase alpha-5 (Homo sapiens) (UniProt O75582); test: RPS6KA5 SGC Tm panel (DSF); conditions: for ΔTm: Compound concentration 10.0 uM
# Chain of Ribosomal protein S6 kinase alpha-5 (Homo sapiens) (O75582 whole entry, looked up): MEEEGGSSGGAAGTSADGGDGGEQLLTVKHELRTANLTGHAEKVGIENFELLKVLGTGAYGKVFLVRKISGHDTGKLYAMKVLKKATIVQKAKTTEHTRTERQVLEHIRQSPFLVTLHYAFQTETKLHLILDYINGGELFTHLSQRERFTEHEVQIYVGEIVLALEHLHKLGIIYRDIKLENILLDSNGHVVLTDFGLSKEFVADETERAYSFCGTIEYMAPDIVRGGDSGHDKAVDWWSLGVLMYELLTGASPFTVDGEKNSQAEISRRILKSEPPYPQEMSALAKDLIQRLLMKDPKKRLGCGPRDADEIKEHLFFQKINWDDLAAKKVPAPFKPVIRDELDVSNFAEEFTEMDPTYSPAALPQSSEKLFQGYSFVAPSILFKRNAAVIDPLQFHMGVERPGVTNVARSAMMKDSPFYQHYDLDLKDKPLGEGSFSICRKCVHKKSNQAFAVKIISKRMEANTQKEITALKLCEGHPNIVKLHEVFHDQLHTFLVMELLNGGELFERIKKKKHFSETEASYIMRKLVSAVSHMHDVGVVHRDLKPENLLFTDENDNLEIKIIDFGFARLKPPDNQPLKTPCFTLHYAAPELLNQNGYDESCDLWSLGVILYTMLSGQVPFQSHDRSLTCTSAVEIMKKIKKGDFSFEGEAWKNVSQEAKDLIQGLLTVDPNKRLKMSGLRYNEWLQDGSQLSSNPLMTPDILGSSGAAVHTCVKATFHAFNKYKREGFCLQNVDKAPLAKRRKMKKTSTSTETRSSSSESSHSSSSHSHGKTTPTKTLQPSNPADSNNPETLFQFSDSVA
# [8] = biological target: Tyrosine-protein kinase Fes/Fps (Homo sapiens) (UniProt P07332); test: FES SGC Tm panel (DSF); conditions: for ΔTm: Compound concentration 10.0 uM
# Chain of Tyrosine-protein kinase Fes/Fps (Homo sapiens) (P07332 whole entry): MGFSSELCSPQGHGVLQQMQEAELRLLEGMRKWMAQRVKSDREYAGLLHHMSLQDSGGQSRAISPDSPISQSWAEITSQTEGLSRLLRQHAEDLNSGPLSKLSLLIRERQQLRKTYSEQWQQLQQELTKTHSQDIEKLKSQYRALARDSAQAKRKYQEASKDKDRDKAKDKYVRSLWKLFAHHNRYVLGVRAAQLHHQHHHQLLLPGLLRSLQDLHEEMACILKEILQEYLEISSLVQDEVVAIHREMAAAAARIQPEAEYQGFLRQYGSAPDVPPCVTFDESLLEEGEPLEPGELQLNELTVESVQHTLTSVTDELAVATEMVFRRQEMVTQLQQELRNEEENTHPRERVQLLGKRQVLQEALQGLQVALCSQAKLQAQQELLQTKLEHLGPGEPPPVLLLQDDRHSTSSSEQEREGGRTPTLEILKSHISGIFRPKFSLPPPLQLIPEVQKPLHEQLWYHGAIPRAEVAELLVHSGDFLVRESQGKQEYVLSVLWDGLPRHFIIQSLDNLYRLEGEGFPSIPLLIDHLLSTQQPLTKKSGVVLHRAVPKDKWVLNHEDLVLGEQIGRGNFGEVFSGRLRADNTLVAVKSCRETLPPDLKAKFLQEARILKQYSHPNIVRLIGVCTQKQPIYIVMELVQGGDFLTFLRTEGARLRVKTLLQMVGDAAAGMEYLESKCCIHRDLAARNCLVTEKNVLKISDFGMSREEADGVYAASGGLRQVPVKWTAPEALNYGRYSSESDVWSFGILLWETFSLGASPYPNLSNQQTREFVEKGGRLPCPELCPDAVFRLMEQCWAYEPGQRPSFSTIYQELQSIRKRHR
# [9] = biological target: SWI/SNF-related matrix-associated actin-dependent regulator of chromatin subfamily A member 4 (Homo sapiens, UniProt P51532); test: Measurement of the ATPase catalytic activity using the ADP-Glo detection (SMARCA4); format: functional
# [10] = biological target: Serine/threonine-protein kinase pim-3 (Homo sapiens) (UniProt Q86V86); test: PIM3 SGC Tm panel (DSF); conditions: for ΔTm: Compound concentration 10.0 uM
# [11] = biological target: Sodium-dependent serotonin transporter (Homo sapiens) (UniProt P31645); conditions: Compound concentration 10.0 uM
# Chain of Sodium-dependent serotonin transporter (Homo sapiens) (P31645 whole entry, looked up): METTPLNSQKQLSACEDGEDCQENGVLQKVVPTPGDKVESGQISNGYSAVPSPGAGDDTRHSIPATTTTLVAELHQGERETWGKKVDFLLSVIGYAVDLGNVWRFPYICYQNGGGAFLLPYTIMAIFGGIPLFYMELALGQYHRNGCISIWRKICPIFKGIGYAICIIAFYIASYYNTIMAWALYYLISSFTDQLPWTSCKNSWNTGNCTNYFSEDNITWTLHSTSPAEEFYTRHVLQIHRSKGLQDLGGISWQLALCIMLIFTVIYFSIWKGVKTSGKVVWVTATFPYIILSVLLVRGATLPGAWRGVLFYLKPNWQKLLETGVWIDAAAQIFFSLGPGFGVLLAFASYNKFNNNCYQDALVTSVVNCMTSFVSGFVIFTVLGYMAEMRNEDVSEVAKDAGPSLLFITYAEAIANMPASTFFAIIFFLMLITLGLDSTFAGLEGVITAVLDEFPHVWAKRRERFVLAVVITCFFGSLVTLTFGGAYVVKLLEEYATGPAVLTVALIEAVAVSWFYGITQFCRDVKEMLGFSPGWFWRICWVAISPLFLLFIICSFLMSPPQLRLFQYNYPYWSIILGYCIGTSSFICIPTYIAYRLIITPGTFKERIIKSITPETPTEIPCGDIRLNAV
# [12] = biological target: T3, Serine/threonine-protein kinase 4 (Homo sapiens) (UniProt Q13043); test: STK4 SGC Tm panel (DSF); conditions: for ΔTm: Compound concentration 10.0 uM
# T3 sequence (whole entry): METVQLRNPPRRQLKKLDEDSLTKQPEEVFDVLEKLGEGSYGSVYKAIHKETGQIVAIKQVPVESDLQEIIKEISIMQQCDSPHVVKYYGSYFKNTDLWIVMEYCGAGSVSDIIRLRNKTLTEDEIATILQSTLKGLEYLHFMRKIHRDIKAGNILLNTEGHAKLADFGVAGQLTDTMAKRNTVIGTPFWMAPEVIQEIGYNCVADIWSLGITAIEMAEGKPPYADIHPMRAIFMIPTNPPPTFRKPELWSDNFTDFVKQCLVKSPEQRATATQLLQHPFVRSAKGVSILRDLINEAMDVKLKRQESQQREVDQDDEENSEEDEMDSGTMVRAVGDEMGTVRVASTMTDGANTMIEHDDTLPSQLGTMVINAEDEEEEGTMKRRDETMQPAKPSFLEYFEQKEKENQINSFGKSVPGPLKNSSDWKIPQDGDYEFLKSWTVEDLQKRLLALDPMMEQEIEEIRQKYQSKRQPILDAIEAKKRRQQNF
# [13] = GPCRScan assay: inhibition of GABA/PBR; design: species or system Rattus norvegicus; radioligand conc. used [nm] 0.3 – 2.0, parental cells brain tissue
# [14] = biological target: Sigma intracellular receptor 2 (Homo sapiens) (UniProt Q5BJF2); conditions: Compound concentration 10.0 uM
# [15] = biological target: Casein kinase II subunit alpha' (Homo sapiens) (UniProt P19784); test: CSNK2A2 SGC Tm panel (DSF)
# Chain of Casein kinase II subunit alpha' (Homo sapiens) (P19784 whole entry, looked up): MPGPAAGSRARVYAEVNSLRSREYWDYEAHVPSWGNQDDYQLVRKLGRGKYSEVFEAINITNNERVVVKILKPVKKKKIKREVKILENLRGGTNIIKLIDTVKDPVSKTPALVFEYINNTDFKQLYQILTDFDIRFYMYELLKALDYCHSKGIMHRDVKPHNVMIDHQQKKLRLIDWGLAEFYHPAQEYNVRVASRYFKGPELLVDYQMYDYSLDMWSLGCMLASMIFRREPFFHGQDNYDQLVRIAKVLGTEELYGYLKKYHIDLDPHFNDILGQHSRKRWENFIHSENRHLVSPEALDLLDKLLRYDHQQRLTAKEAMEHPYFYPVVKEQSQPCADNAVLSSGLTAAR
# [16] = biological target: Sigma non-opioid intracellular receptor 1 (Homo sapiens, UniProt Q99720); test: GPCRScan assay: inhibition of Sigma 1; design: radioligand conc. used [nm] 4.0 – 5.0, parental cells HEKT
# [17] = biological target: Casein kinase II subunit alpha' (Homo sapiens) (UniProt P19784); test: CSNK2A2A SGC Tm panel (DSF)
# [18] = biological target: Beta-3 adrenergic receptor (Homo sapiens) (UniProt P13945); conditions: Compound concentration 10.0 uM
# [19] = biological target: Histamine H4 receptor (Homo sapiens) (UniProt Q9H3N8); conditions: Compound concentration 10.0 uM
# Chain of Membrane-associated tyrosine- and threonine-specific cdc2-inhibitory kinase (Homo sapiens) (Q99640 whole entry): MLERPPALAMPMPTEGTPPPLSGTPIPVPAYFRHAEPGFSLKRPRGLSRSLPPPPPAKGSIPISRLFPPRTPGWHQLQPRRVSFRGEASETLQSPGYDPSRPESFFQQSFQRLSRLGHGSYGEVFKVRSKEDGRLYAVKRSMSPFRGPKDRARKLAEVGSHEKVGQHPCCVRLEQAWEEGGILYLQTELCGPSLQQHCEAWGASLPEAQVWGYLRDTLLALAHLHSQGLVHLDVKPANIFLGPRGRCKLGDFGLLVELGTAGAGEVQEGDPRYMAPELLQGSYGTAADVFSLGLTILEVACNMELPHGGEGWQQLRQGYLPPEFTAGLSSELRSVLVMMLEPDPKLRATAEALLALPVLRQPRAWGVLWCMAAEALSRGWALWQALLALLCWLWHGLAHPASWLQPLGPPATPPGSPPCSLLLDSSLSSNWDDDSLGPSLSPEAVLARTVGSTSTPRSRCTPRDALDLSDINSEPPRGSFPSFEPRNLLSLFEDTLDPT
SMILES,ΔTm [1],delta Tm Staurosporine positive control [2],ΔTm [2],delta Tm Staurosporine positive control [3],ΔTm [3],delta Tm Staurosporine positive control [4],ΔTm [4],inhibition [5] [%],delta Tm Staurosporine positive control [6],ΔTm [6],delta Tm Staurosporine positive control [7],ΔTm [7],delta Tm Staurosporine positive control [8],ΔTm [8],delta Tm Staurosporine positive control [10],ΔTm [10],inhibition [11] [%],delta Tm Staurosporine positive control [12],ΔTm [12],inhibition [14] [%],further results
C[C@H](NC(=O)c1cn(C2(C#N)CC2)cn1)C(=O)Nc1nc(-c2cccc(-c3ccn(C)n3)c2)cs1,-0.216,4.91,0.617,16,0.121,3.19,0.296,12.4,11.5,1.13,13.1,-0.0945,8.7,0.0445,17.6,0.698,17.3,14.2,0,2.43,IC50 [9]: 3990 nM (not active); Ki [13]: 1580 nM; pKi [13]: 5.81; delta Tm Staurosporine positive control [15]: 4.26; ΔTm ([15]; Compound concentration 10.0 uM): -0.217; Ki ([16]; read-out: Ki): 417 nM; Ki ([16]; read-out: pKi (converted)): 407 nM
COC[C@H](NC(=O)c1ccn(S(C)(=O)=O)c1)C(=O)Nc1nc(-c2cccc(-c3ccn(C)n3)c2)cs1,-0.638,4.91,0.501,16,0.157,3.19,0.303,9.17,11.5,0.976,13.1,1.16,8.7,0.123,17.6,0.116,27.5,14.2,0,5.91,delta Tm Staurosporine positive control [17]: 4.26; ΔTm ([17]; Compound concentration 10.0 uM): 0.0547; inhibition [18]: -3.49%; inhibition [19]: -0.33%
